Assay results published in patent US20140205670A1, “STABLE SOLID PREPARATIONS” (TAKEDA PHARMACEUTICAL COMPANY LIMITED, priority 2002, published 2014).

Test: Stability Test of Amorphous Lansoprazole R-Isomer (compatibility with basic substances, appearance change)
Type: physicochemical
Conditions: blending ratio A/base 1/1 (1/0 for No Addition)
Experimental: (1) 100 mg of amorphous lansoprazole R-isomer was weighed precisely under low humidity environment, and put in a transparent glass bottle. Subsequently, 100 mg of basic substance as a stabilizer of basic inorganic salt shown below was weighed precisely under low humidity environment, and placed in the bottle containing amorphous lansoprazole R-isomer. Then, the bottle was capped, and shaken slightly with hand to mix.
[1] magnesium carbonate MgCO3 [2] calcium carbonate CaCO3 [3] magnesium oxide MgO [4] magnesium hydroxide Mg (OH)2 [5] no basic substance (2) The prepared samples were stored under the condition of 40° C./75% RH (open) for 5 days. Color tones were named and color codes were numbered based on International Color Manual so as to estimate the appearance change of samples everyday. At the end of experiment, the stability was judged by comparing the color tone with that of the sample stored at 5° C. as initial sample. In addition, A represents amorphous lansoprazole R-isomer in Table 2.

Which “color tone, Storage conditions initial (5° C. 5 days)” value (100 mg amorphous lansoprazole R-isomer (A) + 100 mg basic substance, stored at 5° C. as initial sample) does the source give for `Cc1c(OCC(F)(F)F)ccnc1C[S@@+]([O-])c1nc2ccccc2[nH]1` [No Addition] here?
The value was “pale greenish”.

What about the “appearance change after 40° C./75% RH 5 days compared with initial sample (5° C.)” value (40° C./75% RH (open), 5 days) of the same compound?
The value was “(changed)”.

What about the “color tone, Storage conditions 40° C./75% RH 5 days” value (40° C./75% RH (open), 5 days) of the same compound?
The value was “pale yellow”.
